For seven molecules, IC50 results are on record in US6015822A, “Sulfonamide-substituted fused 5-membered ring compounds, their use as a medicament, and pharmaceutical preparations comprising them” (Hoechst Marion Roussel Deutschland GmbH, priority 1997, dated 2000).

The structures appear in SMILES notation. Where only a bound is given, the exact number is not on record here.

T1 sequence (P70057 whole entry): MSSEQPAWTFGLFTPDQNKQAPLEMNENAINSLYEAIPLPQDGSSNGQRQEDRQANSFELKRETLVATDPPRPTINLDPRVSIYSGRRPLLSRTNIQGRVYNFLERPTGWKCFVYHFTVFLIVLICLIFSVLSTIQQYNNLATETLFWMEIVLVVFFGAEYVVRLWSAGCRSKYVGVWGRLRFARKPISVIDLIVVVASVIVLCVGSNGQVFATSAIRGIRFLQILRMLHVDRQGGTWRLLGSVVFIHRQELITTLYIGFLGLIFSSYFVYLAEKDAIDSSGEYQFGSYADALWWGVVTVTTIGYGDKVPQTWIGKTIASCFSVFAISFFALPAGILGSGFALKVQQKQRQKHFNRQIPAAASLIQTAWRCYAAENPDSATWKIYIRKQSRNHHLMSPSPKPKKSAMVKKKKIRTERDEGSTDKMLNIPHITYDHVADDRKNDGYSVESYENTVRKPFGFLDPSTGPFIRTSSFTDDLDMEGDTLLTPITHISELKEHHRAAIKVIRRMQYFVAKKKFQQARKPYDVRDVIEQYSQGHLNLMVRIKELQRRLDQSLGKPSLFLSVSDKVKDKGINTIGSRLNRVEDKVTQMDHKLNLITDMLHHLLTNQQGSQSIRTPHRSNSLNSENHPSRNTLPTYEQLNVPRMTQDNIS

The experiment concerns the target T1, human IsK protein (UniProt P15382+P70057).
T1 construct: expressed in transfected cells; host or cells: Xenopus laevis oocytes injected with in vitro synthesized IsK RNA
Description: Inhibition of IsK current in Xenopus oocytes expressing human IsK (two microelectrode voltage clamp). The settings on record: human IsK expressed in Xenopus oocytes; voltage jumps to -10 mV lasting 15 s; pH 7.5; room temperature; extrapolated using the Hill equation; read-out: IC-50 (inhibition of IsK control current). It counts as cell-based. On the procedure:
IsK channels from man, rat or guinea-pig were expressed in Xenopus oocytes. To do this, oocytes were first isolated from Xenopus Laevis and defolliculated. IsK -encoding RNA synthesized in vitro was then injected into these oocytes. After IsK protein expression for 2-8 days, IsK currents were measured in the oocytes using the two microelectrode voltage clamp technique. The IsK channels were in this case as a rule activated using voltage jumps to -10 mV lasting 15 s. The bath was irrigated with a solution of the following composition: NaCl 96 mM, KCl 2 mM, CaCl2 1.8 mM, MgCl2 1 mM, HEPES 5 mM (titrated with NaOH to pH 7.5). These experiments were carried out at room temperature. The following were employed for acquiring data and analysis: Geneclamp amplifier (Axon Instruments, Foster City, U.S.A.) and MacLab D/A converter and software (ADInstruments, Castle Hill, Australia). The substances according to the invention were tested by adding them to the bath solution in different concentrations. The effects of the substances were calculated as the percentage inhibition of the IsK control current, which was obtained when no substance was added to the solution. The data were then extrapolated using the Hill equation in order to determine the inhibitory concentrations IC50 for the respective substances.
In the described manner, using the human IsK protein, the following IC50 values were determined for the compounds according to the invention: […]
Take `CCCCOc1ccc2c(c1)C(N(C)S(C)(=O)=O)CC2(C)C` (stereo not shown) [Example 13, 6-Butoxy-3,3-dimethyl-1-(N-methyl-N-methylsulfonyl)aminoindan]: the IC50 is 1200 nM.

Consider `CCCCCCN(C1CC(C)(C)c2ccccc21)S(C)(=O)=O` (stereo not shown) [Example 3, 3,3-Dimethyl-1-(N-hexyl-N-methylsulfonyl)aminoindan], for which the IC50 is < 10000 nM. The same measure for `CCS(=O)(=O)N(C)C1CC(C)(C)c2ccccc21` (stereo not shown) [Example 2, 3,3-Dimethyl-1-(N-ethylsulfonyl-N-methyl)aminoindan]: ~15000 nM; for `CC1(C)CC(N(Cc2ccncc2)S(C)(=O)=O)c2cc([N+](=O)[O-])ccc21` (stereo not shown) [Example 12, 3,3-Dimethyl-6-nitro-1-[N-(4-pyridylmethyl)-N-methylsulfonyl]aminoindan]: ~2000 nM. The same measure for `CCCCN(C1CC(C)(C)c2ccc([N+](=O)[O-])cc21)S(C)(=O)=O` (stereo not shown) [Example 11, 3,3-Dimethyl-6-nitro-1-(N-butyl-N-methylsulfonyl)aminoindan]: 2700 nM; for `CCCCOc1ccc2c(c1)C(N(CC)S(C)(=O)=O)CC2(C)C` (stereo not shown) [Example 14, 6-Butoxy-3,3-dimethyl-1-(N-ethyl-N-methylsulfonyl)aminoindan]: 440 nM. For `CCCCN(C1CS(=O)(=O)c2ccccc21)S(C)(=O)=O` (stereo not shown) [Example 5, N-Butyl-N-(1,1-dioxo-2,3-dihydro-1H-benzo[b]thiophen-3-yl)-methanesulfonamide], the IC50 was > 10000 nM.
